Laboratory results reported in patent publication US20240158446A1, “CYCLIC COMPOUND HAVING SELECTIVE INHIBITORY ACTION ON KRAS OVER HRAS AND NRAS” (CHUGAI SEIYAKU KABUSHIKI KAISHA, priority 2021, published 2024).
Where two headings read alike, the source gives them in different places. Where a SMILES comes first, the peptide text is derived from it. Bridges are numbered along the chain shown (N, C = ends). [ ]: non-standard residue; d: D form. The star is where a group is joined. hPhe(3-Cl-4-CF3) = N[C@@H](CCc1ccc(C(F)(F)F)c(Cl)c1)C(=O)O; NEtPhe(4-Me) = CCN[C@@H](Cc1ccc(C)cc1)C(=O)O; NMePhe(4-F) = CN[C@@H](Cc1ccc(F)cc1)C(=O)O; NMeGly(cPent) = CN[C@H](C(=O)O)C1CCCC1; NMeD = CN[C@@H](CC(=O)O)C(=O)O; NMeL = CN[C@@H](CC(C)C)C(=O)O; NMeV = CN[C@H](C(=O)O)C(C)C; Morpholide = C1CN(*)CCO1; NMeA = CN[C@@H](C)C(=O)O; Ac5c = NC1(C(=O)O)CCCC1; Aze = O=C(O)[C@@H]1CCN1; Sar = CNCC(=O)O

What was measured:
[1] = target: GDP-bound NRAS wild-type protein (Homo sapiens, UniProt P01111); assay: Binding to NRAS by surface plasmon resonance (SPR), Single Cycle Kinetics; conditions: SPR, GDP-bound NRAS wild-type protein vs GDP-bound KRAS wild-type protein
[2] = target: GDP-bound KRAS wild-type protein (Homo sapiens, UniProt P01116); assay: Binding to KRAS by surface plasmon resonance (SPR), Single Cycle Kinetics; conditions: GDP-bound KRAS wild-type protein, read-out: KRAS KD
[3] = target: GDP-bound HRAS wild-type protein (Homo sapiens, UniProt P01112); assay: Binding to HRAS by surface plasmon resonance (SPR), Single Cycle Kinetics; conditions: SPR, GDP-bound HRAS wild-type protein vs GDP-bound KRAS wild-type protein
[4] = SPR Single Cycle Kinetics, 1:1 binding model

Sequence of GDP-bound NRAS wild-type protein (P01111 whole entry): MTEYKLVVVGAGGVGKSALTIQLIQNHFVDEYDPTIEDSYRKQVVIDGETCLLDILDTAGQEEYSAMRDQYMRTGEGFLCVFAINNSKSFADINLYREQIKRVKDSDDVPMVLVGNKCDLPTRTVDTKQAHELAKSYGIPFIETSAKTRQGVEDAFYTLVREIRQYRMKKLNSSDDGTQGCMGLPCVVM
Sequence of GDP-bound HRAS wild-type protein (P01112 whole entry): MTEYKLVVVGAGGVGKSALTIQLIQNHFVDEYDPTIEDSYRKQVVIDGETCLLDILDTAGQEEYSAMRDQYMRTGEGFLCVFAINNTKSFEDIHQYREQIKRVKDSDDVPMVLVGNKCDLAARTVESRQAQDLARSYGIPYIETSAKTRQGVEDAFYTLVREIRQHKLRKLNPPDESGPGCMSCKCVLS
Sequence of GDP-bound KRAS wild-type protein (P01116 whole entry): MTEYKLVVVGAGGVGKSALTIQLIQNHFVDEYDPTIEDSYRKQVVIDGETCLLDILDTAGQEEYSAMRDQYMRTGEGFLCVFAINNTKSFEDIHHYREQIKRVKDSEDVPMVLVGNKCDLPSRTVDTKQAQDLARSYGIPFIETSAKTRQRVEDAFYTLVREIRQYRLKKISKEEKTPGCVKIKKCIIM

Structure (SMILES) | NRAS/KRAS (ratio of KD value for NRAS to KD value for KRAS) [1] | Kd [2, 4] [nM] | HRAS/KRAS (ratio of KD value for HRAS to KD value for KRAS) [3] | Kd ([2]; SPR, Single Cycle Kinetics) [nM]
CC[C@H](C)[C@@H]1NC(=O)[C@H](CC(C)C)N(C)C(=O)C[C@@H](C(=O)N2CCOCC2)N(C)C(=O)[C@H](C2CCCC2)N(C)C(=O)C2(CCCC2)NC(=O)[C@@H]2CCCN2C(=O)[C@H](CCc2ccc(C(F)(F)F)c(Cl)c2)NC(=O)CN(C)C(=O)[C@H](Cc2ccc(F)cc2)N(C)C(=O)CN(C)C(=O)CN(C)C1=O [PP0212] ([NMeL]I[Sar][Sar][NMePhe(4-F)][Sar][hPhe(3-Cl-4-CF3)]P[Ac5c][NMeGly(cPent)][NMeD]-Morpholide; lactam N-11) | C (A compound having a KD ratio of 0.1 or more and less than 3 is denoted as C) | 0.098 | C (A compound having a KD ratio of 0.1 or more and less than 3 is denoted as C) | –
CC[C@H](C)[C@@H]1NC(=O)[C@H](CC(C)C)N(C)C(=O)C[C@@H](C(=O)N2CCOCC2)N(C)C(=O)[C@H](C2CCCC2)N(C)C(=O)C2(CCCC2)NC(=O)[C@@H]2CC(F)(F)CN2C(=O)[C@H](CCc2ccc(C(F)(F)F)c(Cl)c2)NC(=O)CN(C)C(=O)[C@H](Cc2ccc(F)cc2)N2CCCCC[C@@H](C2=O)N(C)C(=O)CN(C)C1=O [PP0966] | B (a compound having 3 or more and less than 10 is denoted as B) | – | B (a compound having 3 or more and less than 10 is denoted as B) | 0.23
CCO[C@@H]1C[C@H]2C(=O)NC3(CC(C)(C)C3)C(=O)N(C)[C@@H](C(CC)CC)C(=O)N(C)[C@H](C(=O)N(C)C)CC(=O)N(C)[C@@H](CC3CCC3)C(=O)N[C@@H]([C@@H](C)CC)C(=O)N(C)CC(=O)N(C)[C@H]3C/C=C\CCN(C3=O)[C@@H](Cc3ccc(C)cc3)C(=O)N(C)CC(=O)N[C@@H](CCc3ccc(Cl)c(Cl)c3)C(=O)N2C1 [PP2120] | AA (a compound having 20 or more is denoted as AA) | – | A (a compound having 10 or more and less than 20 is denoted as A) | 0.91
CC[C@H](C)[C@@H]1NC(=O)[C@H](C)N(C)C(=O)C[C@@H](C(=O)N2CCOCC2)N(C)C(=O)[C@H](C2CCCC2)N(C)C(=O)C2(CCCC2)NC(=O)[C@@H]2CCCN2C(=O)[C@H](CCc2ccc(C(F)(F)F)c(Cl)c2)NC(=O)CN(C)C(=O)[C@H](Cc2ccc(C)cc2)N(CC)C(=O)[C@@H]2CCN2C(=O)[C@H](C)N(C)C1=O [PP0007] ([NMeA]I[NMeA][Aze][NEtPhe(4-Me)][Sar][hPhe(3-Cl-4-CF3)]P[Ac5c][NMeGly(cPent)][NMeD]-Morpholide; lactam N-11) | C (A compound having a KD ratio of 0.1 or more and less than 3 is denoted as C) | 0.074 | C (A compound having a KD ratio of 0.1 or more and less than 3 is denoted as C) | –
CC[C@H](C)[C@@H]1NC(=O)[C@H](CC(C)C)N(C)C(=O)C[C@@H](C(=O)N2CCOCC2)N(C)C(=O)[C@H](C(C)C)N(C)C(=O)C2(CCCC2)NC(=O)[C@@H]2CCCN2C(=O)[C@H](CCc2ccc(C(F)(F)F)c(Cl)c2)NC(=O)CN(C)C(=O)[C@H](Cc2ccc(C)cc2)N(CC)C(=O)[C@@H]2CCN2C(=O)[C@H](C)N(C)C1=O [PP0015] ([NMeL]I[NMeA][Aze][NEtPhe(4-Me)][Sar][hPhe(3-Cl-4-CF3)]P[Ac5c][NMeV][NMeD]-Morpholide; lactam N-11) | C (A compound having a KD ratio of 0.1 or more and less than 3 is denoted as C) | 2.7 | C (A compound having a KD ratio of 0.1 or more and less than 3 is denoted as C) | –
CCO[C@@H]1C[C@H]2C(=O)NC3(CCC3)C(=O)N(C)[C@@H](C3CCCC3)C(=O)N(C)[C@H](C(=O)N(C)C)CC(=O)N(C)[C@@H](CC)C(=O)N[C@@H]([C@@H](C)CC)C(=O)N(C)CC(=O)N(C)[C@H]3C/C=C\CCN(C3=O)[C@@H](Cc3ccc(C(F)(F)F)cc3)C(=O)N(C)CC(=O)N[C@@H](CCc3ccc(C(F)(F)F)c(Cl)c3)C(=O)N2C1 [PP0978, (2S,8S,12R,14S,20S,23S,27S,30S,36S,38Z)-8-[2-[3-chloro-4-(trifluoromethyl)phenyl]ethyl]-20-cyclopentyl-12-ethoxy-27-ethyl-N,N,4,19,22,26,32,35-octamethyl-30-[(1S)-1-methylpropyl]-3,6,9,15,18,21,25,28,31,34,42-undecaoxo-2-[[4-(trifluoromethyl)phenyl]methyl]spiro[1,4,7,10,16,19,22,26,29,32,35-undecazatricyclo[34.5.1.0^10,14]dotetracont-38-ene-17,1′-cyclobutane]-23-carboxamide] | A (a compound having 10 or more and less than 20 is denoted as A) | – | B (a compound having 3 or more and less than 10 is denoted as B) | 0.088
